Results as given in US20230278972A1, “SUBSTITUTED HALOALKYL SULFONANILIDE HERBICIDES” (FMC Corporation, priority 2020, published 2023).

Key:
Type in all cases: in vivo
corn (Zea mays) = test: Test A1 preemergence, corn
Method in brief: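 Pre: seeds in loam/sand blend, directed soil spray. Post: potted plants, same soil, 2–10 cm, 1–2 leaf stage. Chemicals in non-phytotoxic solvent + surfactant for both.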

[1] = tested on: Foxtail, Giant (giant foxtail, Setaria faberi); test: Test A1 preemergence, Foxtail, Giant
Method in brief: (§1)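 Both timings started from seed in a loam-sand blend. Preemergence pots got a directed soil application immediately; postemergence pots were sprayed when seedlings had one or two leaves and stood 2–10 cm. Each compound was prepared in a non-phytotoxic solvent plus surfactant.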

[2] = tested on: Pigweed, Palmer (palmer amaranth, palmer pigweed, Amaranthus palmeri); test: Test A1 preemergence, Pigweed, Palmer
Method in brief: as §1

[3] = tested on: Ryegrass, Italian (Italian ryegrass, Lolium multiflorum); test: Test A1 preemergence, Ryegrass, Italian
Method in brief: as §1

soybean (Glycine max) = test: Test A1 preemergence, soybean
Method in brief: as §1

[4] = tested on: blackgrass (Alopecurus myosuroides); test: Test A1 postemergence, blackgrass; details: Postemergence, 0 to 100 scale (0 no effect, 100 complete control)
Method in brief: (§2)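 Herbicidal response was scored on plants treated either preemergence, by directed spray onto soil of a loam–sand blend after sowing, or postemergence on potted plants at the one- to two-leaf stage, 2–10 cm high. Test chemicals were carried in a non-phytotoxic solvent mix with surfactant.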

[5] = tested on: Foxtail, Giant (giant foxtail, Setaria faberi); test: Test A1 postemergence, Foxtail, Giant; details: Postemergence
Method in brief: as §2

[6] = tested on: wheat (Triticum aestivum); test: Test A1 postemergence, wheat; details: Postemergence
Method in brief: as §2

[7] = tested on: horseweed (Erigeron canadensis); test: Test A1 postemergence, horseweed; details: Postemergence
Method in brief: as §2

[8] = tested on: barnyardgrass (Echinochloa crus-galli); test: Test B1 flooded paddy test, barnyardgrass; details: 250 g ai/ha, Flood, applied to paddy water, 2-leaf stage, visually evaluated after 10 to 14 days
Description: (§3) A dash (-) response means no test result.

rice (Oryza sativa) = test: Test B1 flooded paddy test, rice; details: 250 g ai/ha, Flood, applied to paddy water, 2-leaf stage, visually evaluated after 10 to 14 days
Description: as §3

[9] = 31 g ai/ha, 0 to 100 scale (0 no effect, 100 complete control)
[10] = 125 g ai/ha, 0 to 100 scale, 0 no effect, 100 complete control
[11] = 31 g ai/ha, 0 to 100 scale (0 no effect, 100 complete control), 10 days

SMILES	Plant response rating, Corn (corn (Zea mays); [9])	Plant response rating, Corn (corn (Zea mays); [10])	Plant response rating, Foxtail, Giant [1, 9]	Plant response rating, Foxtail, Giant [1, 10]	Plant response rating, Pigweed, Palmer [2, 9]	Plant response rating, Pigweed, Palmer [2, 10]	Plant response rating, Ryegrass, Italian [3, 9]	Plant response rating, Ryegrass, Italian [3, 10]	Plant response rating, Soybean (soybean (Glycine max); [9])	Plant response rating, Soybean (soybean (Glycine max); [10])	Plant response rating, Blackgrass ([4]; 31 g ai/ha, 10 days)	Plant response rating, Blackgrass ([4]; 125 g ai/ha)	Plant response rating, Foxtail, Giant [5, 11]	Plant response rating, Foxtail, Giant ([5]; 125 g ai/ha, 0 to 100 scale)	Plant response rating, Wheat [6, 11]	Plant response rating, Wheat ([6]; 125 g ai/ha, 0 to 100 scale)	Plant response rating, Horseweed [7, 11]	Plant response rating, Horseweed ([7]; 125 g ai/ha, 0 to 100 scale)	Plant response rating, Barnyardgrass (0 to 100 scale, 0 is no effect, 100 is complete control) [8]	Plant response rating, Rice (0 to 100 scale, 0 is no effect, 100 is complete control) (rice (Oryza sativa))
Cc1cc(C)c(N(COC(=O)C(C)(C)C)S(=O)(=O)C(F)(F)F)cc1C1=NOC2CCCCCC12 (single isomer, unassigned) [Compound 294]	0	0	0	20	10	30	40	90	0	0	0	0	0	20	0	20	10	90	95	0
Cc1cc(C)c(-n2nccc(C)c2=O)cc1NS(=O)(=O)C(F)(F)F [Compound 281]	0	0	0	100	0	40	0	40	0	80	0	0	0	30	0	20	100	70	0	0
COc1cnn(-c2cc(NS(=O)(=O)C(F)(F)F)c(C)cc2C)c(=O)c1OC [Compound 282]	0	50	0	30	0	80	0	40	20	20	0	20	0	20	60	80	50	80	0	0
Cc1c(NS(=O)(=O)C(F)(F)F)cc(C(=O)N(C)C)c(C)c1Cl [Compound 287]	0	0	0	30	0	90	70	90	0	30	0	0	0	0	0	10	20	40	0	0
Cc1cc(F)c(NS(=O)(=O)C(F)(F)F)cc1C1=NOC2(CCCC2)C1 [Compound 303]	0	90	80	100	20	20	50	100	0	0			30	80	0	50	0	70	0	0
COc1cc(C)c(C2=NOC3(CCCC3)C2)cc1NS(=O)(=O)C(F)(F)F [Compound 304]	0	0	0	80	0	20	40	50	0	0			0	50	0	20	0	0	0	0
Cc1cc(Br)c(NS(=O)(=O)C(F)(F)F)cc1C1=NOC2(CCCC2)C1 [Compound 309]	0	0	60	90	40	40	60	90	0	0			20	60	0	40	10	20	0	0
